In US20230139171A1 (SITA Information Networking Computing UK Limited, priority 2019, published 2023) one finds IC50 data, which are given here for nine molecules.

Holding throughout (type): cell-based
One assay has as its target T1, human TLR9 (Homo sapiens, UniProt Q9NR96).
T1 construct: host or cells: HEK-Blue cells
T1 sequence (Q9NR96 26-1032): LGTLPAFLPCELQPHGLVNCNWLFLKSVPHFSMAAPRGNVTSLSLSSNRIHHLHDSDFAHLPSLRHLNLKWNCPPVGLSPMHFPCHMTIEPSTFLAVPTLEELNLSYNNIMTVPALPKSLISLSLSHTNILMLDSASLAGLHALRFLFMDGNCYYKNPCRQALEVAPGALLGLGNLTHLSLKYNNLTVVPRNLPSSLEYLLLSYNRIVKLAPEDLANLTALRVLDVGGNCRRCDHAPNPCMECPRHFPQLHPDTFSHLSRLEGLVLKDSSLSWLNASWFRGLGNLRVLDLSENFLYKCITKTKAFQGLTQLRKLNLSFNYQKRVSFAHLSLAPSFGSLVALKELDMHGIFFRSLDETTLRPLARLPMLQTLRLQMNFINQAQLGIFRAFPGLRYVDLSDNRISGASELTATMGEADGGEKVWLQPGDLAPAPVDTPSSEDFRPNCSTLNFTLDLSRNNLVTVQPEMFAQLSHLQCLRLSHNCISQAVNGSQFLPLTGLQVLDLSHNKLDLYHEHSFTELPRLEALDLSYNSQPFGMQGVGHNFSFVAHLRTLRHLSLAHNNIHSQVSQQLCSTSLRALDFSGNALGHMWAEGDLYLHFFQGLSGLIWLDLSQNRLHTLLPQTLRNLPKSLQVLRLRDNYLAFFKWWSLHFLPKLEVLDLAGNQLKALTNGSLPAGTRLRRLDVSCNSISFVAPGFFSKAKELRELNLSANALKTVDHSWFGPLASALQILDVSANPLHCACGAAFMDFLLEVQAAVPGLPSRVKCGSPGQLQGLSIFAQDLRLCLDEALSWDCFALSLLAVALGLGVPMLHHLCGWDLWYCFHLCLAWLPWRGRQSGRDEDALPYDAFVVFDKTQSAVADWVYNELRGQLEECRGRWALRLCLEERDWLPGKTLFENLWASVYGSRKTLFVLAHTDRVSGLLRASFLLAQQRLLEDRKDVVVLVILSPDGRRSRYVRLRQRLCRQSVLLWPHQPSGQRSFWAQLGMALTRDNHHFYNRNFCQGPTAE
Description: TLR9 inhibition reporter assay (HEK-Blue cells, SEAP reporter, ODN2006 stimulation). As to conditions: HEK-Blue cells overexpressing human TLR9, SEAP reporter, ODN2006 5 nM. Here is the method: TLR7/8/9 Inhibition Reporter Assays
HEK-Blue™-cells (Invivogen) overexpressing human TLR7, TLR8 or TLR9 receptors were used for screening inhibitors of these receptors using an inducible SEAP (secreted embryonic alkaline phosphatase) reporter gene under the control of the IFN-β minimal promoter fused to five NF-κB and AP-1-binding sites. Briefly, cells are seeded into Greiner 384 well plates (15000 cells per well for TLR7, 20,000 for TLR8 and 25,000 for TLR9) and then treated with test compounds in DMSO to yield a final dose response concentration range of 0.05 nM-50 μM. After a 30 minute compound pre-treatment at room temperature, the cells are then stimulated with a TLR7 ligand (gardiquimod at a final concentration of 7.5 μM), TLR8 ligand (R848 at a final concentration of 15.9 μM) or TLR9 ligand (ODN2006 at a final concentration of 5 nM) to activate NF-κB and AP-1 which induce the production of SEAP. After a 22 hour incubation at 37° C., 5% CO2, SEAP levels are determined with the addition of HEK-Blue™ Detection reagent (Invivogen), a cell culture medium that allows for detection of SEAP, according to manufacturer's specifications. The percent inhibition is determined as the % reduction in the HEK-Blue signal present in wells treated with agonist plus DMSO alone compared to wells treated with a known inhibitor.
(In general: A reporter such as luciferase makes a cellular process visible.)

For a further assay, the target named is T2, human TLR8 (Homo sapiens, UniProt Q9NR97).
T2 construct: host or cells: HEK-Blue cells
T2 sequence (Q9NR97 27-1041): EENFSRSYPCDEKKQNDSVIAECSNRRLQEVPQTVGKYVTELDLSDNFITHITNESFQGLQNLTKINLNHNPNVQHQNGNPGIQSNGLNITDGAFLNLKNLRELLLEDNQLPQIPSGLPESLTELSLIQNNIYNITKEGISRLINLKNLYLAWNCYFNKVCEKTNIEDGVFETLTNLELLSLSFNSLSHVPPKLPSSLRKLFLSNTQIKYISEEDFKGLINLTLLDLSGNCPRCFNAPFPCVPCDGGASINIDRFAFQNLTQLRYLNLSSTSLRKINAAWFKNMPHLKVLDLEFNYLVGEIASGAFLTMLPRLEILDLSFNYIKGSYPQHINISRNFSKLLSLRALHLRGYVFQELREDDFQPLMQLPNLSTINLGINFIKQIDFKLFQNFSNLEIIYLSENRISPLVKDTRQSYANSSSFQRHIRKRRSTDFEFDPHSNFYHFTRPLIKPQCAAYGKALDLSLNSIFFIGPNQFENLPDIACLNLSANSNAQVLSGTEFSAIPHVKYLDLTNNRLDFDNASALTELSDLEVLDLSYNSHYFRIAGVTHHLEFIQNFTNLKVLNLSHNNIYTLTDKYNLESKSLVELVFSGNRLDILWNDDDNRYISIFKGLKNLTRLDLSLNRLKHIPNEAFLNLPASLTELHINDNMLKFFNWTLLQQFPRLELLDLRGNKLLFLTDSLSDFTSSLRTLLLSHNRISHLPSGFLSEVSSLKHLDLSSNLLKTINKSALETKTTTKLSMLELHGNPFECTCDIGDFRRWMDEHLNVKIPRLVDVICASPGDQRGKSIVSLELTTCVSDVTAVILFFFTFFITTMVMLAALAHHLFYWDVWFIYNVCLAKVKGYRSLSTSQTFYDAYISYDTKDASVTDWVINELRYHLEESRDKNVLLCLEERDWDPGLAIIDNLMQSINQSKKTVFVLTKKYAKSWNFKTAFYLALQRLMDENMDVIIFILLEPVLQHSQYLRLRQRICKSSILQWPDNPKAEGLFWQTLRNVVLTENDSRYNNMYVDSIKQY
Nature of the assay: TLR8 inhibition reporter assay (HEK-Blue cells, SEAP reporter, R848 stimulation). The conditions noted are these: HEK-Blue cells overexpressing human TLR8, SEAP reporter, R848 15.9 μM; read-out: TLR8 IC50. An outline of the steps: (§1)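 Compound treatment: 30 min, RT, 0.05 nM–50 μM final. Agonist: TLR7 gardiquimod 7.5 μM; TLR8 R848 15.9 μM; TLR9 ODN2006 5 nM. Incubation 22 h, 37 °C, 5% CO2. Readout SEAP, HEK-Blue Detection.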

Another assay has as its target T3, human TLR7 (Homo sapiens, UniProt Q9NYK1).
T3 construct: host or cells: HEK-Blue cells
T3 sequence (Q9NYK1 27-1049): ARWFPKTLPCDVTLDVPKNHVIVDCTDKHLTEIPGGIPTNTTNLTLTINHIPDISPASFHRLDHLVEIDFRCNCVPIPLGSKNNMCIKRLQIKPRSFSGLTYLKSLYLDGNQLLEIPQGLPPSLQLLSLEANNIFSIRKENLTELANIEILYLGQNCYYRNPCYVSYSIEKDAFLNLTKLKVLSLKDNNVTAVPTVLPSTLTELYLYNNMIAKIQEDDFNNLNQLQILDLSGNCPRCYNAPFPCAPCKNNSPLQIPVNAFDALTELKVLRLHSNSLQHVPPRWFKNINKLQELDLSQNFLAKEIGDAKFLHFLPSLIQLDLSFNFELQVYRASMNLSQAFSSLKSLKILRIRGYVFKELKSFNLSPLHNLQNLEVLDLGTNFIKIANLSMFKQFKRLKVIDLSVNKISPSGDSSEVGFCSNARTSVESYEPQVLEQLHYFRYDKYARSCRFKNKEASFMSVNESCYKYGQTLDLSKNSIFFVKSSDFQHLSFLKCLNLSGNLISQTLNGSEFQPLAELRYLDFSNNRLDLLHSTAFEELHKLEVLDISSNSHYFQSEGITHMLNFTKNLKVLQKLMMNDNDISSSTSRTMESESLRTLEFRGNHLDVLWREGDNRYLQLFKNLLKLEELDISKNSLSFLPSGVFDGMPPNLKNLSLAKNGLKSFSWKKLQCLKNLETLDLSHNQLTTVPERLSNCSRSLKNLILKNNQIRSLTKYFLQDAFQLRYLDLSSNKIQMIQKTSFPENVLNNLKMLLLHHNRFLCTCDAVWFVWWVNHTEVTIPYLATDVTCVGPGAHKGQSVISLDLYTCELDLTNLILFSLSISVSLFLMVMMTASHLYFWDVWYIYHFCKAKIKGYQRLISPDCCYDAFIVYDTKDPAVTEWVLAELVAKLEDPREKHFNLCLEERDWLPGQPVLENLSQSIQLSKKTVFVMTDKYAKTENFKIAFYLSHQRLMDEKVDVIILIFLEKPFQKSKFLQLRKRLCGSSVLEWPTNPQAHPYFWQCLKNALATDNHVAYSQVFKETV
Description: TLR7 inhibition reporter assay (HEK-Blue cells, SEAP reporter, gardiquimod stimulation). The conditions noted are these: HEK-Blue cells overexpressing human TLR7, SEAP reporter, gardiquimod 7.5 μM; read-out: TLR7 IC50. Summed up: as §1

Take `Cc1c(-c2[nH]c3sc(C4CCC(NC5CCS(=O)(=O)C5)CC4)nc3c2C(C)C)cn2ncnc2c1C` (racemic) [Example 230, 3-((4-(5-(7,8-dimethyl-[1,2,4]triazolo[1,5-a]pyridin-6-yl)-6-isopropyl-4H-pyrrolo[3,2-d]thiazol-2-yl)cyclohexyl)amino)tetrahydrothiophene 1,1-dioxide]: the IC50 (commonly the concentration needed to halve the response being measured) was found to be 43500 nM on human TLR9, 1.5 nM on human TLR8 and 4.92 nM on human TLR7.
On to `COc1cc(-c2[nH]c3sc(C4CCC(NC5COC5)CC4)nc3c2C(C)C)cn2ncnc12` (single isomer, unassigned) [Example 66, N-(4-(6-isopropyl-5-(8-methoxy-[1,2,4]triazolo[1,5-a]pyridin-6-yl)-4H-pyrrolo[3,2-d]thiazol-2-yl)cyclohexyl)oxetan-3-amine], for which the IC50 on human TLR9 came out at 5710 nM; on human TLR8, 16.9 nM; on human TLR7 it was 3.59 nM.
As for `COc1cc(-c2[nH]c3sc(C4CCC(N5CC(CO)(CO)C5)CC4)nc3c2C(C)C)cn2ncnc12` (single isomer, unassigned) [Example 67, (1-(4-(6-isopropyl-5-(8-methoxy-[1,2,4]triazolo[1,5-a]pyridin-6-yl)-4H-pyrrolo[3,2-d]thiazol-2-yl)cyclohexyl)azetidine-3,3-diyl)dimethanol], the IC50 turned out to be 2250 nM against human TLR9, 12.9 nM on human TLR8 and 12.6 nM at human TLR7.
In the case of `COc1cc(-c2[nH]c3sc(C4CCC(N5CC6(COC6)C5)CC4)nc3c2C(C)C)cn2ncnc12` (single isomer, unassigned) [Example 68, 6-(4-(6-isopropyl-5-(8-methoxy-[1,2,4]triazolo[1,5-a]pyridin-6-yl)-4H-pyrrolo[3,2-d]thiazol-2-yl)cyclohexyl)-2-oxa-6-azaspiro[3.3]heptane], the IC50 turned out to be 3500 nM against human TLR9, 0.58 nM on human TLR8 and 0.81 nM at human TLR7.
For the molecule `COc1cc(-c2c(C(C)C)c3nc(C4CCN(CC(F)(F)F)CC4)sc3n2CC(F)(F)F)cn2ncnc12` [Example 9, 6-isopropyl-5-(8-methoxy-[1,2,4]triazolo[1,5-a]pyridin-6-yl)-4-(2,2,2-trifluoroethyl)-2-(1-(2,2,2-trifluoroethyl)piperidin-4-yl)-4H-pyrrolo[3,2-d]thiazole], half-maximal inhibition at human TLR9 (IC50) required 4160 nM.
For the molecule `Cc1cc(-c2[nH]c3sc(N4CCNC[C@H]4C)nc3c2C(C)C)cn2ncnc12` [Example 311, (R)-6-isopropyl-5-(8-methyl-[1,2,4]triazolo[1,5-a]pyridin-6-yl)-2-(2-methylpiperazin-1-yl)-4H-pyrrolo[3,2-d]thiazole], the IC50 at human TLR9 amounted to 18800 nM; on human TLR7 it was 1400 nM.
Take `COCCN1CCN(c2nc3c(C(C)C)c(-c4cc(C)c5ncnn5c4)[nH]c3s2)[C@H](C)C1` [Example 357, (R)-6-isopropyl-2-(4-(2-methoxyethyl)-2-methylpiperazin-1-yl)-5-(8-methyl-[1,2,4]triazolo[1,5-a]pyridin-6-yl)-4H-pyrrolo[3,2-d]thiazole]: the IC50 against human TLR9 was determined as 38100 nM; at human TLR7 it was 1280 nM.
Turning to `Cc1cc(-c2[nH]c3sc(N4CCN(CC(C)C)C[C@H]4C)nc3c2C(C)C)cn2ncnc12` [Example 361, (R)-2-(4-isobutyl-2-methylpiperazin-1-yl)-6-isopropyl-5-(8-methyl-[1,2,4]triazolo[1,5-a]pyridin-6-yl)-4H-pyrrolo[3,2-d]thiazole], the results for the IC50 against human TLR9 and at human TLR7 were 45600 nM and 719 nM, respectively.
Regarding `Cc1cc(-c2[nH]c3sc(N4CCN(C5CCC5)C[C@H]4C)nc3c2C(C)C)cn2ncnc12` [Example 362, (R)-2-(4-cyclobutyl-2-methylpiperazin-1-yl)-6-isopropyl-5-(8-methyl-[1,2,4]triazolo[1,5-a]pyridin-6-yl)-4H-pyrrolo[3,2-d]thiazole], it took 25100 nM to reach half-maximal inhibition on human TLR9 (IC50).
